The values below come from ChEMBL document CHEMBL1201862, “PubChem BioAssay data set” (2004).

Activity calls are given as the source filed them.

The term IC50 denotes the concentration that inhibits the measured activity by half. A word on the CC50: it is the concentration giving 50% cytotoxicity. What is called AC50 is the midpoint of the concentration-response curve, whichever way the signal moves. Broadly, the EC50 is the concentration at which the effect is half-maximal.

The target in assay [1] is Beta-galactosidase (Escherichia coli, UniProt Q8VNN2). Kind of assay: Dose response counterscreen for EBI2 assay utilizing the enzyme, b-galactosidase. The assay is classed as functional. In general terms: Counterscreens check selectivity or assay interference.
Assay [2] concerns the target T1, Fructose-bisphosphate aldolase (Mycobacterium tuberculosis, UniProt P9WQA3).
T1 sequence (P9WQA3 whole entry): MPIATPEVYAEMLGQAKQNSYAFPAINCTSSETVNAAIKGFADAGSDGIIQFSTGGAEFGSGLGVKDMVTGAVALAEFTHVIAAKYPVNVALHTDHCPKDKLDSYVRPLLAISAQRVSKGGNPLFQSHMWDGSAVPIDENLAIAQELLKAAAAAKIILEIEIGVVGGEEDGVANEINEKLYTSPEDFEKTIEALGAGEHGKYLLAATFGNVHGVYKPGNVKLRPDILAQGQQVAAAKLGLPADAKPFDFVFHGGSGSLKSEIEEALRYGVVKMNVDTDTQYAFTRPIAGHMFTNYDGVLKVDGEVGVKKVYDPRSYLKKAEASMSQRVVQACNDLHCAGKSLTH
Kind of assay: Fluorescence-based biochemical high throughput dose response assay for inhibitors of the fructose-bisphosphate aldolase (FBA) of M. tuberculosis. The assay is classed as functional.

Assay [3] in a line: HEp-2 cell cytotoxicity, dose response, cytotoxicity control for RSV inhibitor project, HTS (AID 2410). The assay is classed as functional. Particulars: human respiratory syncytial virus.
Assay [4] has as its target Nonstructural protein 1 (Influenza A virus, UniProt Q194T2). The assay is classed as functional, Influenza A virus (A/California/07/2009(H1N1)).
Assay [5] can be described thus: AlphaScreen signal interference compounds, dose response, artefact control for ARNT-TACC3 interaction inhibitor project, biochemical, luminescence, cherry-pick (AID 651705).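 Further: AlphaScreen bead proximity signal that flags compounds interfering with the detection technology; potency reflects signal decrease which marks the compound as an assay artifact.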 The assay is classed as functional.
Assay [6] is described as follows: cells. The assay is classed as functional.
For assay [7], the target named is T2, Caspase-3 (Homo sapiens, UniProt P42574).
T2 sequence (P42574 whole entry): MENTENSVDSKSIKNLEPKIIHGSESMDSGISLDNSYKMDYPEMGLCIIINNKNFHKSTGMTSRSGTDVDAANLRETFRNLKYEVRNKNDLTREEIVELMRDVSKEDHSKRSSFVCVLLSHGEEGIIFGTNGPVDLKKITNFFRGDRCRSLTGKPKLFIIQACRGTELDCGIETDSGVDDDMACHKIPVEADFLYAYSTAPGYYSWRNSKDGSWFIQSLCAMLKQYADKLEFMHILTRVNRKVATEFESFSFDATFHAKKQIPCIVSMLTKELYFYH
Kind of assay: SAR Analysis of small molecule inhibitors of Sentrin-specific proteases (SENPs) using a Caspase-3 Selectivity assay. [Related pubchem assays (depositor defined):AID2540, AID2599, AID434973, AID489001]. The assay is classed as functional.

The target of assay [8] is T3, Sentrin-specific protease 6 (Homo sapiens, UniProt Q9GZR1).
T3 sequence (Q9GZR1 whole entry): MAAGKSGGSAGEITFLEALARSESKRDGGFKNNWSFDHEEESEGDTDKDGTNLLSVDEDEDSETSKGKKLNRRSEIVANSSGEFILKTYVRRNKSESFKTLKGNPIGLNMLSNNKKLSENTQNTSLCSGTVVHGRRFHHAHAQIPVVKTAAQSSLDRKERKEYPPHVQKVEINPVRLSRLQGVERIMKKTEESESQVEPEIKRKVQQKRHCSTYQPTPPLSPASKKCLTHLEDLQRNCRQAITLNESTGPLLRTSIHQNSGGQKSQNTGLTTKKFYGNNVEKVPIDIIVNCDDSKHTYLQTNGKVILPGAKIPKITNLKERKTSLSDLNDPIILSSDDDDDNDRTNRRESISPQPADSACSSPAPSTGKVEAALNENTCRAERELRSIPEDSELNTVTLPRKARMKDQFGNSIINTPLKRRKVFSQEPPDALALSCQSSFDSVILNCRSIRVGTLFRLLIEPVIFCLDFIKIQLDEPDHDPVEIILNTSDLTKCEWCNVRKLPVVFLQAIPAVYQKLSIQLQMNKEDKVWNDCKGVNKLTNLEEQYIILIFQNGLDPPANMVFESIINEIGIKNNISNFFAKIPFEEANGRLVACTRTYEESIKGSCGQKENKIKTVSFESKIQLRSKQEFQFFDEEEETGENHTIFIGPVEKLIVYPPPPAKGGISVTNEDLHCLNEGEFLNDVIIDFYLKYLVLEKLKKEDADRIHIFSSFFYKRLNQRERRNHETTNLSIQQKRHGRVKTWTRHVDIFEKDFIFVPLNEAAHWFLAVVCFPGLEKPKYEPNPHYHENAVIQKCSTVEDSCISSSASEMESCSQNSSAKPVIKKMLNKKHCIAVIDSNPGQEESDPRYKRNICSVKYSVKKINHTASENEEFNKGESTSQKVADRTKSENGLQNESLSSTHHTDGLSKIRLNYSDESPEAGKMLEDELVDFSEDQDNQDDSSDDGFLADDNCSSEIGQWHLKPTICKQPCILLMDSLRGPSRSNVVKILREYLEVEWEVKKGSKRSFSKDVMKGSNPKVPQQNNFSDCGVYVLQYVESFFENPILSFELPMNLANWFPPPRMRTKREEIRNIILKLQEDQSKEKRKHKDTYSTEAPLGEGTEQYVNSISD
In words: SAR Analysis of small molecule inhibitors of Sentrin-specific protease 6 (SENP6) using a Luminescent assay. [Related pubchem assays (depositor defined):AID2582, AID2599]. The assay is classed as functional.

In assay [9] the target is T3, Sentrin-specific protease 6. The assay is classed as functional.
For assay [10], the target named is T4, Sentrin-specific protease 8 (Homo sapiens, UniProt Q96LD8).
T4 sequence (Q96LD8 whole entry): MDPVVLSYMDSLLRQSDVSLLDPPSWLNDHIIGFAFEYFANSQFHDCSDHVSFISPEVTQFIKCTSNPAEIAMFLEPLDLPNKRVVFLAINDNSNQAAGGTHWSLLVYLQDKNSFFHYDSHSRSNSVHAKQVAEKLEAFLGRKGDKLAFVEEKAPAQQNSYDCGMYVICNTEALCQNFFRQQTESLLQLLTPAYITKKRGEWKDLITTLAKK
Kind of assay: SENP8 protease inhibitors, SAR follow-up, biochemical, luminescence (AID 504501). The assay is classed as functional.

In assay [11] the target is T2, Caspase-3. The assay is classed as functional.
The target in assay [12] is T5, Cysteine protease ATG4B (Homo sapiens, UniProt Q9Y4P1).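 Further: Fluorescence-based dose-response confirmation assay measuring inhibition of ATG4B activity.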
T5 sequence (Q9Y4P1 whole entry): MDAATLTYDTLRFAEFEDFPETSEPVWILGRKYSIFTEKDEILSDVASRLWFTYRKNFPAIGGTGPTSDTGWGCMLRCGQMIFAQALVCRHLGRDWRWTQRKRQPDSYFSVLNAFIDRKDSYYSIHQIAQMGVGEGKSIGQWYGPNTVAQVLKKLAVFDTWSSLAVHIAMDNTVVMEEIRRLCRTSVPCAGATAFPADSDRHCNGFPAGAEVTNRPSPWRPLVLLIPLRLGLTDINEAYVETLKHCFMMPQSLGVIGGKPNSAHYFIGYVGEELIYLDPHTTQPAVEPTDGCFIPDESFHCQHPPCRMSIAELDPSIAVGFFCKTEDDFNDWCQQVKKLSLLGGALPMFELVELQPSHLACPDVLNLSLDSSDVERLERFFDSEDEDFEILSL
The assay is classed as functional.

In assay [13] the target is T4, Sentrin-specific protease 8. The assay is classed as functional.
Assay [14] deals with Phospholipase A2 (Homo sapiens, UniProt P04054). The assay is classed as functional.
In assay [15] the target is T6, Sentrin-specific protease 7 (Homo sapiens, UniProt Q9BQF6).
T6 sequence (Q9BQF6 whole entry): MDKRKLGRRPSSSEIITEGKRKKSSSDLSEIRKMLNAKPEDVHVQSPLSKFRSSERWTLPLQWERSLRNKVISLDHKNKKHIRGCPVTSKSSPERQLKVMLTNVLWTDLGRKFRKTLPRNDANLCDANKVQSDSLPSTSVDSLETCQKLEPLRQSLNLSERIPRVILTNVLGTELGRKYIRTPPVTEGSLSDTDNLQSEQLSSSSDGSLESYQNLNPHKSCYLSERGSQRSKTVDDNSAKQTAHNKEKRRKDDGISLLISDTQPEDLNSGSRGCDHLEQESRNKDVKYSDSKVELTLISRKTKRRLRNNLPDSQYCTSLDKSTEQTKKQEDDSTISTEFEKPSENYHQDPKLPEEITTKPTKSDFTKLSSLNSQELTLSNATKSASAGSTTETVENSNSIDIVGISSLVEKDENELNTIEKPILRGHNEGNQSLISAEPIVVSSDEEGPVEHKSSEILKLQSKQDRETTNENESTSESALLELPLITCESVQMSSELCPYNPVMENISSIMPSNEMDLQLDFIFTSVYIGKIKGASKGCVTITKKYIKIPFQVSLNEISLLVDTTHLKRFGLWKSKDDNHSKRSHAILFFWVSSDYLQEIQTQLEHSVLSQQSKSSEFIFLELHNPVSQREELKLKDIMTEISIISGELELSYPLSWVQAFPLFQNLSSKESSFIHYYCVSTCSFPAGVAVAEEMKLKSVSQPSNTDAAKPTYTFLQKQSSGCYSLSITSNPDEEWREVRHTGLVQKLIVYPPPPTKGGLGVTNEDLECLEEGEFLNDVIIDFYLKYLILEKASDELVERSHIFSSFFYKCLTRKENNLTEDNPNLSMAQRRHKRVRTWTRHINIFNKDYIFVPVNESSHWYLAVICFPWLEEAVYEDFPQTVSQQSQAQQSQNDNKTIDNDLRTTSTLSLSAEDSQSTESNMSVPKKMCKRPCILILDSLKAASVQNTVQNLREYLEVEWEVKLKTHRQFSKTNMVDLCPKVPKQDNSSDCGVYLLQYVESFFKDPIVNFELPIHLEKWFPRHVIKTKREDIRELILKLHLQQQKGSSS
In words: SENP7 protease inhibitors, SAR follow-up, biochemical, luminescence (AID 504497). The assay is classed as functional.

For assay [16], the target named is T6, Sentrin-specific protease 7. The assay is classed as functional.
Assay [17] has as its target T7, Trace amine-associated receptor 1 (Homo sapiens, UniProt Q96RJ0).
T7 sequence (Q96RJ0 whole entry): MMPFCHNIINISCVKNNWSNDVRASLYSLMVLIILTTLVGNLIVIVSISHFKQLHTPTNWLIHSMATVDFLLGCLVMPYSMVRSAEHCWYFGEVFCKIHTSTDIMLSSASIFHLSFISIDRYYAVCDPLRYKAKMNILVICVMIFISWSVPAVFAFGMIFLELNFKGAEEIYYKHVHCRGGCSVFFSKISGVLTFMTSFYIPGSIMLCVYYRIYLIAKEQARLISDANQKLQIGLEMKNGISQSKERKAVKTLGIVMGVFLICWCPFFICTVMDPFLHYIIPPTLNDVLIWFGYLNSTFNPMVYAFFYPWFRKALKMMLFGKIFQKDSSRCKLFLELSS
Kind of assay: Counterscreen for agonists of the human trace amine associated receptor 1 (hTAAR1): Fluorescence-based cell-based high throughput dose response assay to identify hTAAR1 agonist that also desensitize TAAR1 receptor response. The assay is classed as functional.

Assay [18] in a line: cells. The assay is classed as functional, cell-based.
The nature of assay [19]: cells. The assay is classed as functional, cell-based. The source holds these as a separate data set.
Assay [20] addresses Induced myeloid leukemia cell differentiation protein Mcl-1 (Homo sapiens, UniProt Q07820). The assay is classed as functional.
The target of assay [21] is T7, Trace amine-associated receptor 1. In words: Fluorescence-based cell-based high throughput dose response assay to identify agonists of the human trace amine associated receptor 1 (TAAR1). The assay is classed as functional.

Chain of Beta-galactosidase (Q8VNN2 whole entry): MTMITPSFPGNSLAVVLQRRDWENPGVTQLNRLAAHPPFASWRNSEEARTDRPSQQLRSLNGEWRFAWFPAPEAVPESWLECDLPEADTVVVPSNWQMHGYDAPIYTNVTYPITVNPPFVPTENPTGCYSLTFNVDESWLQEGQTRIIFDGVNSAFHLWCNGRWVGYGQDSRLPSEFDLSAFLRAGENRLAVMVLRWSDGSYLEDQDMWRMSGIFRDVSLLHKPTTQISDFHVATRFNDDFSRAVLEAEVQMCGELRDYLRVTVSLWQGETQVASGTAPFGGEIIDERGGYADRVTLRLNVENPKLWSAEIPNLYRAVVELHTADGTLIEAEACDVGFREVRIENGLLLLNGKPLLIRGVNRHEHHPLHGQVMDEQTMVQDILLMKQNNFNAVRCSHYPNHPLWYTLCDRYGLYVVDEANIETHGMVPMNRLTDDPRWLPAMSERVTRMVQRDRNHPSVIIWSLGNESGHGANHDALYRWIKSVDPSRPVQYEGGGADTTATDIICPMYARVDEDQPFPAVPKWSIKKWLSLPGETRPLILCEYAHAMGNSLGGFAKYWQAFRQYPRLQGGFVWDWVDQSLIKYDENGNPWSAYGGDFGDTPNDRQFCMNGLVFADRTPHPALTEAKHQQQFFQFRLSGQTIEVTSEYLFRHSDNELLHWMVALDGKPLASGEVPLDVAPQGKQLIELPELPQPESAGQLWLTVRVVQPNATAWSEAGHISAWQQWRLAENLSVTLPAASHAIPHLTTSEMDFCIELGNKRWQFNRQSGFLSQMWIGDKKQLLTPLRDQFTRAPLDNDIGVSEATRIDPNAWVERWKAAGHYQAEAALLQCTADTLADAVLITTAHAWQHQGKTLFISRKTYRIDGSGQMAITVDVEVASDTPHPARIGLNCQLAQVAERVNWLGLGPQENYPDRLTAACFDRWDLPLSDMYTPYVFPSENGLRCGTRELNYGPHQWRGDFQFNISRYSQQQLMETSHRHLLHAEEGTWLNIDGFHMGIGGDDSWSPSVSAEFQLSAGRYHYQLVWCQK
Chain of Phospholipase A2 (P04054 whole entry): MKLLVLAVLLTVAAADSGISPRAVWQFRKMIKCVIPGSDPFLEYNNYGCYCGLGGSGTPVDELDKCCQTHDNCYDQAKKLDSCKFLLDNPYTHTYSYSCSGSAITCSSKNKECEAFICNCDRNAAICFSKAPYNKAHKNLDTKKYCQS
Chain of Induced myeloid leukemia cell differentiation protein Mcl-1 (Q07820 whole entry): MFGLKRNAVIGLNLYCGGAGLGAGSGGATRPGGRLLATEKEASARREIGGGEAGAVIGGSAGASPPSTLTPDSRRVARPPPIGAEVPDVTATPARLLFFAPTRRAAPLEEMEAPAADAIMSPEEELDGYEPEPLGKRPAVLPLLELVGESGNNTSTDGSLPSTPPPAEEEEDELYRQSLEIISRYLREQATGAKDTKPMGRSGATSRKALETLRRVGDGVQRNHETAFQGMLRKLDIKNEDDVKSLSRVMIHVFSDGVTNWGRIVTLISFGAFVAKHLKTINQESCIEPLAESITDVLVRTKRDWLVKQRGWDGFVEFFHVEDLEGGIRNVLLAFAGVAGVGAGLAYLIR
Chain of Nonstructural protein 1 (Q194T2 whole entry): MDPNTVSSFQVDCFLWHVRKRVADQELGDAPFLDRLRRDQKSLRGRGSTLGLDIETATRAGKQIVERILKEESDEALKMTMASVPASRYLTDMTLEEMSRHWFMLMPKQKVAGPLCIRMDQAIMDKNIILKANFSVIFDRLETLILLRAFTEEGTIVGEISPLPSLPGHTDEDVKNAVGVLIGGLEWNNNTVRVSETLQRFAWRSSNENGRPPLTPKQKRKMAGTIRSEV

As to `N#Cc1c(O)ncc(/C=N/N=C/c2ccccc2)c1Nc1ccccc1`, the IC50 in assay [1] is > 80 µM (inactive).

As to `Cc1cc(=O)oc2cc(OCC(=O)N3CCCC3)ccc12`, the IC50 in [2] was 2.54 µM (active).

Turning to `COc1ccc2cc(C(N)=O)/c(=N/c3ccccc3)oc2c1`, the IC50 in assay [2] is > 10 µM (inactive).

For the molecule `COc1ccc(C2=NN(C(=O)CSc3cn(C)c4ccccc34)C(c3ccc(OC)cc3)C2)cc1` (stereo unspecified), the IC50 in assay [1] is > 80 µM (inactive). Also, the cytotoxic concentration (CC50) in assay [3] is 30.2 µM (active).

In the case of `CC(Oc1ccc2c(c1)oc(=O)c1ccccc12)C(=O)NCCCN1CCOCC1` (stereo unspecified), in [2], the IC50 is 1.5 µM (active).

With `c1ccc(CNCCN2CCNCC2)nc1`, in assay [4], the IC50 is 7.87 µM (active). Further, in [5], the AC50 is 121 µM (active).

Regarding `COc1cc(OC)c(C(=O)OCC(=O)Nc2nnc(-c3ccccc3)o2)cc1OC`, in [5], the AC50 was 112 µM (active).

Regarding `COc1ccc(C(=O)Nc2nnc(C3=COCCO3)o2)cc1`, the IC50 in [6] is 5.45 µM (active). Moreover, the AC50 in assay [5] was 107 µM (active).

On to `CC(C)(C)c1ccc2c(c1)C(=O)c1ccccc1C2=O`, for which the IC50 in assay [7] is 0.934 µM (active); in [8], 0.927 µM (active); in [9], 4.05 µM (active); in assay [10], 1.12 µM (active); in assay [11], > 100 µM (inactive); in assay [12], 9.47 µM (active). Moreover, the IC50 in [13] is > 100 µM (inactive); in assay [14], 6.46 µM (active); in [15] it was 0.635 µM (active); in assay [16], > 100 µM (inactive).

Take `O=C(c1cc2cc(Cl)ccc2[nH]1)N1CCN(c2ccccc2F)CC1`: the IC50 in assay [1] is > 80 µM (inactive).

On to `COc1cc(C(c2nnnn2C2CCCC2)N2CCc3ccccc3C2)ccc1O` (stereo unspecified), for which the IC50 in [17] is 1.33 µM (active); in assay [18], > 29.9 µM (inactive); in assay [20] it was 12.8 µM (active). Moreover, the EC50 in [19] is > 29.9 µM (inactive); in assay [21], 0.496 µM (active).

For the molecule `O=C(NCCc1ccccc1)c1ccc([N+](=O)[O-])cc1`, the IC50 in assay [17] was 7.32 µM (active); in assay [18], > 29.9 µM (inactive). The EC50 was > 29.9 µM (inactive) in assay [19] and 2.32 µM (active) in [21].
